For orientation: pEC50 means the negative decadic logarithm of the EC50, by convention in mol/L.

Each structure is given as a SMILES string. pEC50: −log10 of the molar value. Where two headings read alike, the source gives them in different places.

The subject of assay [1] is peripheral blood mononuclear cell (PBMC). In words: Peripheral blood mononuclear cell assay. Particulars: average of one to four donors.
Description: Selected compounds were tested in an in vitro peripheral blood mononuclear cell (PBMC) assay. […] Serially diluted tested compounds were added to wells in 50 μl of cultivation medium and cells were incubated with the compounds for 1h at 37° C. with 5% CO2. Plates with cells were then spun 500 g for 5 minutes and the medium was removed. Cells were washed twice with the cell culture medium by the use of centrifugation and gently resuspended in 100 μl medium without compounds. After 15 hour incubation at 37° C. with 5% CO2, the cell culture medium was collected and the levels of interferon-alpha (INF-α), interferon-gamma (INF-γ) and tumor necrosis factor-alpha (TNF-α) were determined with ProcartaPlex Assays (ThermoFisher, Waltham, USA) and MAGPIX System (Merck KGaA, Darmstadt, Germany). […] Values reported are an average of runs from one to four donors.
The target of assay [2] is T1, human WT STING (Homo sapiens, UniProt Q86WV6, H232R).
T1 construct: truncated human WT STING or AQ STING (amino acid residues 140-343); 8xHis (N, cleaved yes); SUMO (N, cleaved yes); made in house; host or cells: E. coli Rosetta-gami B (DE3)
The experiment in a line: Differential Scanning Fluorimetry with WT STING. Format: binding. Particulars: thermal shift vs STING apoprotein; 150 μM CDN; truncated WT STING (residues 140-343). On the technique in general: Differential scanning fluorimetry follows unfolding on heating by fluorescence.

Assay [3] deals with T2, human wild type STING (WT STING) (Homo sapiens, UniProt Q86WV6, H232R). The experiment in a line: Digitonin assay using 293T wtSTING-FL reporter cells. Particulars: 293T wtSTING-FL cells; compounds in Digitonin buffer 30 minutes, then 5 hours in medium; ISRE firefly luciferase. The assay is classed as cell-based.
Assay [4] addresses T3, AQ human STING (G230A-R293Q) (Homo sapiens, UniProt Q86WV6, G230A/H232R/R293Q).
T3 construct: truncated human WT STING or AQ STING (amino acid residues 140-343); 8xHis (N, cleaved yes); SUMO (N, cleaved yes); made in house; host or cells: E. coli Rosetta-gami B (DE3)
In words: Differential Scanning Fluorimetry with AQ STING. Particulars: thermal shift vs STING apoprotein; 150 μM CDN; truncated AQ STING (residues 140-343). The assay is classed as binding.

Assay [5] concerns the target T2, human wild type STING (WT STING). In words: 293T WT STING standard reporter assay. Particulars: 293T wtSTING-FL cells; standard reporter assay without digitonin; 7 hours; ISRE firefly luciferase; read-out: 293T WT STING EC50. Format: cell-based. (In general: A reporter such as luciferase makes a cellular process visible.)
The mark [6] stands for this setting: PBMC, read-out: PBMC EC50 IFN-α, compounds 1h, washed, 15 hour incubation, interferon-alpha level in medium.
Setting [7] is: PBMC, read-out: PBMC EC50 IFN-γ, compounds 1h, washed, 15 hour incubation, interferon-gamma level in medium.
[8] abbreviates: PBMC, read-out: PBMC EC50 TNF-α, compounds 1h, washed, 15 hour incubation, tumor necrosis factor-alpha level in medium.
[9] abbreviates: read-out: PBMC EC50 IFN-α, compounds 1h, washed, 15 hour incubation, interferon-alpha level in medium.
[10] abbreviates: read-out: PBMC EC50 IFN-γ, compounds 1h, washed, 15 hour incubation, interferon-gamma level in medium.
The mark [11] stands for this setting: read-out: PBMC EC50 TNF-α, compounds 1h, washed, 15 hour incubation, tumor necrosis factor-alpha level in medium.

T1 sequence (Q86WV6 140-343 H232R): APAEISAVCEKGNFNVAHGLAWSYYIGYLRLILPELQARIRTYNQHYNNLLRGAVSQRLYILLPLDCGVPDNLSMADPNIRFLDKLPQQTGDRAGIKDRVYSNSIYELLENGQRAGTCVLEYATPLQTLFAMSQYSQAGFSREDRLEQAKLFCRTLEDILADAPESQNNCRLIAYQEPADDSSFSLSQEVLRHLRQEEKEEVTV
T3 sequence (Q86WV6 140-343 G230A/H232R/R293Q): as the sequence (Q86WV6 140-343 H232R) above, with G91A, R154Q counted along it
T2 sequence (Q86WV6 whole entry H232R): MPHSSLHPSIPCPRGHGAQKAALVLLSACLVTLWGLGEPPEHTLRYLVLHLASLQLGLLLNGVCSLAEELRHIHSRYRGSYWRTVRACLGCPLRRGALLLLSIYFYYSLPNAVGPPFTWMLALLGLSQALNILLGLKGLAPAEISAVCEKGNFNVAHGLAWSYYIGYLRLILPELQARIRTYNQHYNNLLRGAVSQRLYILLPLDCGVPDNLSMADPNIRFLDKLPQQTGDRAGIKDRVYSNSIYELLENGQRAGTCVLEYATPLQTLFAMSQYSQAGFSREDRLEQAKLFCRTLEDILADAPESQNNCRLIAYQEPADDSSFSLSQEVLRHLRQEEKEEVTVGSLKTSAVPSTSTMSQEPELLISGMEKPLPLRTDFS

Consider `Nc1ncnc2c1ncn2[C@@H]1O[C@@H]2COP(=O)(S)O[C@@H]3[C@H](F)[C@@H](COP(=O)(O)CO[C@H]2[C@H]1F)O[C@H]3n1cnc2c(=O)[nH]cnc21` (single isomer, unassigned) [Compound 13b], for which the negative logarithm of the EC50 (pEC50) is 3.82 in assay [1] (setting [6]); 4.15 in assay [1] (setting [7]); 4.19 in assay [1] (setting [8]); 8.00 in assay [3]; 5.96 in assay [5]. Moreover, the “DSF ΔTm WT STING” value in assay [2] was determined as 20.9 °C. In addition, the “DSF ΔTm AQ STING” value in assay [4] worked out at 26.0 °C.
In the case of `Nc1nc2c(ncn2[C@@H]2O[C@@H]3COP(=O)(O)CO[C@H]4[C@@H](F)[C@H](n5cnc6c(N)ncnc65)O[C@@H]4COP(=O)(S)O[C@@H]2[C@@H]3F)c(=O)[nH]1` (single isomer, unassigned) [Compound 11b], the negative-log EC50 (pEC50) was 3.64 in assay [1] (setting [9]); 4.25 in assay [1] (setting [10]); 3.77 in assay [1] (setting [11]); 8.00 in assay [3]; 5.72 in assay [5]. Also, in assay [2], the “DSF ΔTm WT STING” value worked out at 22.4 °C. In addition, in assay [4], the “DSF ΔTm AQ STING” value amounted to 29.2 °C.
For the compound `Nc1nc2c(ncn2[C@@H]2O[C@@H]3COP(=O)(S)CO[C@H]4[C@@H](F)[C@H](n5cnc6c(N)ncnc65)O[C@@H]4COP(=O)(S)O[C@@H]2[C@@H]3F)c(=O)[nH]1` (single isomer, unassigned) [Compound 17d], the pEC50 is 4.16 in assay [1] (setting [6]); 4.64 in assay [1] (setting [7]); 4.17 in assay [1] (setting [8]); 7.92 in assay [3]; 6.40 in assay [5]. Moreover, the “DSF ΔTm WT STING” value in assay [2] was found to be 19.2 °C. Further, in assay [4], the “DSF ΔTm AQ STING” value amounted to 27.6 °C.
As to `Nc1nc2c(ncn2[C@@H]2O[C@@H]3COP(=O)(O)CO[C@H]4[C@@H](F)[C@H](n5cnc6c(N)ncnc65)O[C@@H]4COP(=O)(S)O[C@@H]2[C@@H]3F)c(=O)[nH]1` (single isomer, unassigned) [Compound 11a], the negative logarithm of the EC50 (pEC50) in assay [1] (setting [6]) was 3.54; in assay [1] (setting [8]), 3.74; in assay [1] (setting [10]) it was 3.82; in assay [3], 7.52; in assay [5], 5.60. The “DSF ΔTm WT STING” value in assay [2] came out at 17.3 °C. In assay [4], the “DSF ΔTm AQ STING” value was found to be 23.1 °C.
As for `Nc1nc2c(ncn2[C@@H]2O[C@@H]3COP(=O)(S)CO[C@H]4[C@@H](F)[C@H](n5cnc6c(N)ncnc65)O[C@@H]4COP(=O)(S)O[C@@H]2[C@@H]3F)c(=O)[nH]1` (single isomer, unassigned) [Compound 17c], the negative logarithm of the EC50 (pEC50) in assay [1] (setting [9]) was 3.97; in assay [1] (setting [10]), 4.38; in assay [1] (setting [11]) it was 4.08; in assay [3] it was 8.15; in assay [5] it was 6.85. In addition, the “DSF ΔTm WT STING” value in assay [2] stood at 18.6 °C. Moreover, the “DSF ΔTm AQ STING” value in assay [4] is 25.4 °C.
With `Nc1ncnc2c1ncn2[C@@H]1O[C@@H]2COP(=O)(O)O[C@H]3[C@@H](O)[C@H](n4cnc5c(N)ncnc54)O[C@@H]3COP(=O)(O)O[C@H]2[C@H]1O` [3′3′-c-di-AMP, reference compound], the “DSF ΔTm WT STING” value in assay [2] worked out at 2.5 °C. For the same compound, the pEC50 in assay [3] is 6.52; in assay [5], 3.69. For the same compound, the “DSF ΔTm AQ STING” value in assay [4] was 9.0 °C.

For the origin of these results see patent US12318403B2, “2′3′-cyclic dinucleotides and prodrugs thereof” (INSTITUTE OF ORGANIC CHEMISTRY AND BIOCHEMISTRY ASCR, V.V.I., priority 2019, dated 2025).
